Experimental data published in US6436445B1, “Antimicrobial and antiviral compositions containing an oxidizing species” (Ecolab Inc., priority 1999, dated 2002).
Like-named read-outs stand apart in the source and are kept apart here. Marks after values point to notes of the source that are not given here.

What was measured:
E. coli ATCC 11229 = experiment: Log reduction of bacteria by liquid compositions, 30 second contact (E. coli); format: cell-based; conditions: for Log Reduction E. coli / Log Reduction: 30 second contact time; for Log Reduction E. coli: vs. untreated control; for Log Reduction: E. coli
Text: (§1) A variety of nitrogen sources are utilized. Results recorded include the color of the solution and the microbial log reduction of gram-positive and gram-negative bacteria (E. coli and S. aureus, respectively). As shown earlier there is a direct correlation between color of the solution and microbial efficacy. […] Looking at Table 6, there is an obvious direct correlation between color and antimicrobial activity. Table 7 compares formulas of the present invention with prior art examples for the reduction of gram-positive and gram-negative bacteria. […] Results recorded include the pH of the solution, the color of the solution and the log reduction in microbe.

S. aureus = experiment: Log reduction of bacteria by liquid compositions, 30 second contact (S. aureus); format: cell-based; conditions: for Log Reduction S. aureus: vs. untreated control
Text: as §1

Feline parvovirus = conditions: cited from earlier work
[1] = tested on: Total bacterial flora on prerigor beef tissue surfaces; experiment: Microbial reduction on prerigor beef tissue surfaces, 30 second treatment; format: cell-based
[2] = tested on: Penicillium expansum (ATCC 7861); experiment: Mold spore suspension test, exposure, neutralization, plating on Sabouraud Dextrose agar; format: cell-based; conditions: P. expansum, 15 minute contact time
[3] = published results against Feline parvovirus
[4] = Actives Conc. 300 ppm, 30 second exposure

Compound: C[N+](C)(C)CCO.[Cl-] [choline chloride]
- Log Reduction (Z. bailii; N-source:H2O2:KI 300:0:0 ppm, pH 7, 30 second contact time): 0.0 log
- Log Reduction E. coli (E. coli ATCC 11229): 0 log
- Log Reduction (E. coli ATCC 11229; N-source:H2O2:KI 300:0:0 ppm, pH 7): 0.0 log
- Log Reduction S. aureus (S. aureus; 30 second contact time): 0 log

Compound: cocoa dimethyl betaine
- Log Reduction E. coli (E. coli ATCC 11229): 0 log
- Log Reduction S. aureus (S. aureus; 30 second contact time): 0 log

Compound: [Na+].[O-]Cl [NaOCl]
- Minimum Concentration (for 10-minute inactivation) (Feline parvovirus; [3]): 2,000 ppm

Compound: CC(C)O [IPA]
- Minimum Concentration (for 10-minute inactivation) (Feline parvovirus; [3]): 500,000 ppm

Compound: O=CCCCC=O [Glutaraldehyde]
- Minimum Concentration (for 10-minute inactivation) (Feline parvovirus; published, (2-log)): 10,000

Compound: Oc1ccccc1-c1ccccc1 [o-phenylphenol G, o-phenylphenol]
- Minimum Concentration (for 10-minute inactivation) (Feline parvovirus; [3]): 100,000 ppm

Compound: CC(O)C(=O)O (centres unmarked) [lactic acid]
- Log Reduction ([1]; Active Antimicrobial 5000 ppm, treated 30 seconds, drained 10 minutes, relative to untreated starting meat carcass): 0.8 log

Compound: CCO [Ethanol]
- Minimum Concentration (for 10-minute inactivation) (Feline parvovirus; [3]): 500,000 ppm

Compound: CCCCCCCC[N+](C)(C)[O-] [C8 amine oxide, Octyl dimethyl aznine oxide]
- Log Reduction E. coli (E. coli ATCC 11229): 0 log
- Log Reduction S. aureus (S. aureus; 30 second contact time): 0 log

Compound: cocodimethyl betaine
- Log Reduction E. coli (E. coli ATCC 11229): 0 log
- Log Reduction S. aureus (S. aureus; 30 second contact time): 0 log

Compound: CCCCCCCCCCCCCCCC[n+]1ccccc1 [cetyl pyridinium chloride]
- Log Reduction [1]: 0.5 log

Compound: OO [Formula H2O2, hydrogen peroxide]
- Log Reduction (Z. bailii; N-source:H2O2:KI 0:532:0 ppm, pH 3, 30 second contact time): 0.1 log
- Log Reduction (Z. bailii; N-source:H2O2:KI 0:532:0 ppm, pH 5, 30 second contact time): 0.1 log
- Log Reduction (Z. bailii; N-source:H2O2:KI 0:532:0 ppm, pH 7, 30 second contact time): 0.1 log
- Log Reduction E. coli (E. coli ATCC 11229): 0.2 log
- Log Reduction (CFU/ml) E. coli (E. coli ATCC 11229; [4]): 0.2 log CFU/ml
- Log Reduction (E. coli ATCC 11229; N-source:H2O2:KI 0:300:0 ppm, pH 5): 0.2 log
- Log Reduction S. aureus (S. aureus; 30 second contact time): 0 log
- Log Reduction (CFU/ml) S. aureus (S. aureus; [4]): 0.4 log CFU/ml
- Log Reduction (S. aureus; S. aureus, N-source:H2O2:KI 0:300:0 ppm, pH 5, 30 second contact time): 0.4 log
- Log Reduction ([2]; N-source:H2O2:KI 0:532:0 ppm, pH 5): 0.0* log

Compound: CCCCCCCCCC[N+](C)(C)CCCCCCCCCC.[Cl-] [didecyl dimethyl ammonium chloride]
- Log Reduction (Z. bailii; N-source:H2O2:KI 20:0:0 ppm, pH 3, 30 second contact time): 0.1 log
- Log Reduction ([2]; N-source:H2O2:KI 100:0:0 ppm, pH 7): 1.0* log

Compound: [I-].[K+] [KI, potassium iodide]
- Log Reduction E. coli (E. coli ATCC 11229): 0 log
- Log Reduction S. aureus (S. aureus; 30 second contact time): 0 log
- Log Reduction ([2]; N-source:H2O2:KI 0:0:500 ppm, pH 5): 0.0* log
